Data as given in ChEMBL document CHEMBL4340547, “Synthesis and SAR development of quinoline analogs as novel P2X7 receptor antagonists” (Bioorg Med Chem Lett, 2019).

Assays:
[1] = Intrinsic clearance in rat liver microsomes; assay type: ADME, Microsome; conditions: read-out: CLH
[2] = Intrinsic clearance in mouse liver microsomes; assay type: ADME, Microsome; conditions: read-out: CLH
[3] = Intrinsic clearance in human liver microsomes; assay type: ADME, Microsome; conditions: read-out: CLH
[4] = target: T1, P2X purinoceptor 7 (Homo sapiens, UniProt Q99572); assay: Antagonist activity at P2X7R in LPS-stimulated human THP1 cells assessed as inhibition of BzATP-induced IL-1beta release preincubated for 30 mins followed by BzATP stimulation and measured after 30 mins by sandwich ELISA
T1 sequence (Q99572 whole entry): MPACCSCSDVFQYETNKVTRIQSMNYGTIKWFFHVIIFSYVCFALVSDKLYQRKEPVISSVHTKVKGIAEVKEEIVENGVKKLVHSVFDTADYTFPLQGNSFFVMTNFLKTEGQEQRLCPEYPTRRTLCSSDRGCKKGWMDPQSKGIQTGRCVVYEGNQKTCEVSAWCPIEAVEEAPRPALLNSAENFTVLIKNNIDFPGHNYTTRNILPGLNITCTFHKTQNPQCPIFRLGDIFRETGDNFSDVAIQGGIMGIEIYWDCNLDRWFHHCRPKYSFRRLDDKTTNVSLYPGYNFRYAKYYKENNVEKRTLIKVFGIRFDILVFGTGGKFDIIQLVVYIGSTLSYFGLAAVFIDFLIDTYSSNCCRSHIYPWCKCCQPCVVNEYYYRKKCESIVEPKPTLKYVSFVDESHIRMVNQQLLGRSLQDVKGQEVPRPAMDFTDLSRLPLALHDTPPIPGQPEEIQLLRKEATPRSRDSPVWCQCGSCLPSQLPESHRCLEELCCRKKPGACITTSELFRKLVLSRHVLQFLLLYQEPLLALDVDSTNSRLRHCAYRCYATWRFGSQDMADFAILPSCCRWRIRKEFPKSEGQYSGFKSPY

[5] = target: T1, P2X purinoceptor 7; assay: Antagonist activity at human P2X7 receptor expressed in HEK293 cells assessed as inhibition of BzATP-induced YO PRO dye uptake preincubated for 20 mins followed by YO PRO dye and BzATP addition measured after 30 mins by fluorescence assay; assay type: cell-based
[6] = system: MDR; assay: Efflux ratio of apparent permeability in MDCK cells expressing MDR; assay type: ADME, cell-based, Canis lupus familiaris; conditions: dog, MDCK-MDR1
[7] = system: MDR; assay: Apparent permeability across apical to basolateral side in MDCK cells expressing MDR; assay type: ADME, cell-based, Canis lupus familiaris; conditions: dog, MDCK-MDR1
[8] = target: T2, P2X purinoceptor 7 (Mus musculus, UniProt Q9Z1M0); assay: Antagonist activity at mouse P2X7 receptor assessed as inhibition of BzATP-induced YO PRO dye uptake preincubated for 20 mins followed by YO PRO dye and BzATP addition measured after 30 mins by fluorescence assay
T2 sequence (Q9Z1M0 whole entry): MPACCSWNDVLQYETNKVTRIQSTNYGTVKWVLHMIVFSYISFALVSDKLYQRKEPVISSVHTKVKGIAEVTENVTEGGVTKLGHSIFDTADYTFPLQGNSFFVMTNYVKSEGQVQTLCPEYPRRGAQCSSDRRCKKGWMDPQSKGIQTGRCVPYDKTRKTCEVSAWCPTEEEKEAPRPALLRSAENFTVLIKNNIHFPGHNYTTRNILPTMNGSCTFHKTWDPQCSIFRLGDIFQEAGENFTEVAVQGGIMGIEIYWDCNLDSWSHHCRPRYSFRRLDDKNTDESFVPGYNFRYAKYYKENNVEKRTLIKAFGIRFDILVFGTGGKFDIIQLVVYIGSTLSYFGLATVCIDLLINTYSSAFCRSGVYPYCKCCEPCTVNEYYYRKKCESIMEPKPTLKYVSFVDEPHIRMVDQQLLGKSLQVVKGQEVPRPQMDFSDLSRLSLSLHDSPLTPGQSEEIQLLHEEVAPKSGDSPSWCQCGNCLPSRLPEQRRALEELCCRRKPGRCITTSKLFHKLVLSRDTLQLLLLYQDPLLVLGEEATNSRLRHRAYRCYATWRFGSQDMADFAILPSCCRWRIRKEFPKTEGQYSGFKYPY

[9] = target: T3, P2X purinoceptor 7 (Rattus norvegicus, UniProt Q64663); assay: Antagonist activity at rat P2X7 receptor assessed as inhibition of BzATP-induced YO PRO dye uptake preincubated for 20 mins followed by YO PRO dye and BzATP addition measured after 30 mins by fluorescence assay
T3 sequence (Q64663 whole entry): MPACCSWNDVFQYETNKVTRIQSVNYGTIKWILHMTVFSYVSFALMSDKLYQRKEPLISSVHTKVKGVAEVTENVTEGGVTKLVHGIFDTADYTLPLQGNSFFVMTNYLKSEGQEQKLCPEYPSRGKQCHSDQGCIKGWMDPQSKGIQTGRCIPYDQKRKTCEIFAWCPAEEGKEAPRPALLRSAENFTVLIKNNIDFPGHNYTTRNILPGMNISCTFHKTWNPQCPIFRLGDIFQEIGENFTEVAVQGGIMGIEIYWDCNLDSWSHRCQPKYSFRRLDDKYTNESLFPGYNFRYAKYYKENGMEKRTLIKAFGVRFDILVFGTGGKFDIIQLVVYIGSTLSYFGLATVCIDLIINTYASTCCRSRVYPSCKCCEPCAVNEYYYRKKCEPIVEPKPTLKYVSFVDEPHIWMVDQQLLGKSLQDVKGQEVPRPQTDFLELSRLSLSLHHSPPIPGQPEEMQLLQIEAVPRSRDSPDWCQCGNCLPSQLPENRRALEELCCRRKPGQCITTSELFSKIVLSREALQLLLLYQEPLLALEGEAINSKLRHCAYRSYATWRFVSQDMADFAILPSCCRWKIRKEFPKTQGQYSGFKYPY

[10] = Protein binding in rat plasma assessed as unbound fraction; assay type: ADME, cell-free
[11] = Protein binding in mouse plasma assessed as unbound fraction; assay type: ADME, cell-free
[12] = Oral bioavailability in mouse at 0.5 mg/kg; assay type: ADME, organism-based; conditions: in vivo
[13] = AUC in mouse plasma at 5 mg/kg, po; assay type: ADME, organism-based
[14] = Protein binding in rat plasma; assay type: ADME, cell-free; conditions: read-out: PPB
[15] = AUC in mouse brain at 5 mg/kg, po; assay type: ADME, organism-based
[16] = Protein binding in mouse plasma assessed as unbound fraction at 5 mg/kg, po; assay type: ADME, organism-based
[17] = Unbound brain to plasma concentration ratio in mouse at 5 mg/kg, po; assay type: ADME, organism-based; conditions: read-out: K(p,uu,brain)
[18] = Protein binding in mouse plasma; assay type: ADME, cell-free; conditions: read-out: PPB
[19] = Dose normalized AUC in mouse at 0.2 mg/kg, iv; assay type: ADME, organism-based; conditions: in vivo
[20] = target: Voltage-gated inwardly rectifying potassium channel KCNH2 (Homo sapiens, UniProt Q12809); assay: Activity at human ERG
[21] = Volume of distribution in mouse at 0.2 mg/kg, iv or 0.5 mg/kg, po; assay type: ADME, organism-based; conditions: in vivo
[22] = Terminal half life in mouse at 0.2 mg/kg, iv or 0.5 mg/kg, po; assay type: ADME, organism-based; conditions: in vivo, read-out: beta t1/2 (converted)
[23] = Protein binding in mouse brain assessed as unbound fraction at 5 mg/kg, po; assay type: ADME, organism-based
[24] = Dose normalized Cmax in mouse at 0.5 mg/kg, po; assay type: ADME, organism-based; conditions: in vivo
[25] = Protein binding in human plasma; assay type: ADME, cell-free; conditions: read-out: PPB
[26] = Dose normalized Cmax in mouse at 0.2 mg/kg, iv; assay type: ADME, organism-based; conditions: in vivo
[27] = Dose normalized AUC in mouse at 0.5 mg/kg, po; assay type: ADME, organism-based; conditions: in vivo
[28] = Protein binding in human plasma assessed as unbound fraction; assay type: ADME, cell-free
[29] = Clearance in mouse at 0.2 mg/kg, iv or 0.5 mg/kg, po; assay type: ADME, organism-based; conditions: in vivo

Sequence of Voltage-gated inwardly rectifying potassium channel KCNH2 (Q12809 whole entry): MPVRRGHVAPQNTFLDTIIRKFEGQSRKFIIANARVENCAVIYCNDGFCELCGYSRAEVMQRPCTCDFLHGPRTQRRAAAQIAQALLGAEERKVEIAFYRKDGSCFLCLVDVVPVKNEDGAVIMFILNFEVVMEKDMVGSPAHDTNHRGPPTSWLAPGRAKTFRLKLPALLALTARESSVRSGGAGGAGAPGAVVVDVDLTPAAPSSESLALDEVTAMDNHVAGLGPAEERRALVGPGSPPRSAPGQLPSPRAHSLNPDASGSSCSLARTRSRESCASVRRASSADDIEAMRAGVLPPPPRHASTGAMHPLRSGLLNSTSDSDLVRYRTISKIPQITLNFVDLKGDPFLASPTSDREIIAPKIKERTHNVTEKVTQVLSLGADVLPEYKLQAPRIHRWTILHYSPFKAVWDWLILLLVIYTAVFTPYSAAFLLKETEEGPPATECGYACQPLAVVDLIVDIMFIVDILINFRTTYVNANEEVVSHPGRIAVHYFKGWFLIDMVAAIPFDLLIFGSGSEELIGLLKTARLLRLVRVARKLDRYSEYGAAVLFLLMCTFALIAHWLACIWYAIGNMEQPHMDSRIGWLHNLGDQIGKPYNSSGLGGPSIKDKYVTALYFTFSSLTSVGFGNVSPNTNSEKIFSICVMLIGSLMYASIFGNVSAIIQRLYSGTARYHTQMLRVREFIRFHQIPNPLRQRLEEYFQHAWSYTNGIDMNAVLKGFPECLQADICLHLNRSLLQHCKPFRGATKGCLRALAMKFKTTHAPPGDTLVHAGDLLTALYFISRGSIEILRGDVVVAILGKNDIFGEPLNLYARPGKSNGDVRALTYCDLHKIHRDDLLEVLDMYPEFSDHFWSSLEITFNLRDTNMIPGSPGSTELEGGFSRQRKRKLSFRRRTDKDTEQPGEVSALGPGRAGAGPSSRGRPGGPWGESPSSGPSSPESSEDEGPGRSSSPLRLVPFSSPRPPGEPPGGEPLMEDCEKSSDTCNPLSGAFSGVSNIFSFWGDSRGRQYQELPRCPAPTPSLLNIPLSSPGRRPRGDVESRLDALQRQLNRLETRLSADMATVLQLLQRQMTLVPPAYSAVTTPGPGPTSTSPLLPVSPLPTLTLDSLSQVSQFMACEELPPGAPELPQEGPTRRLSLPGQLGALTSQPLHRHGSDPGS

O=C(NCC1CCC(F)(F)CC1)c1c(Cl)ccc2nc(N3CCCC3)ccc12
microsomal CLint [1]: 57 µL/min/mg
microsomal CLint [2]: 49 µL/min/mg
microsomal CLint [3]: 87 µL/min/mg
IC50 [4]: 108 to 110 nM
IC50 [5]: 37 nM
efflux ratio [6]: 1.2
Papp A→B [7]: 31.8 ×10⁻⁶ cm/s

O=C(NCC1CCCC(F)(F)C1)c1c(Cl)ccc2nc(N3CC[C@@H](F)C3)ccc12 (stereo partly drawn)
microsomal CLint [1]: 102 µL/min/mg
microsomal CLint [2]: 102 µL/min/mg
microsomal CLint [3]: 41 µL/min/mg
IC50 [4]: 118 nM
IC50 [5]: 4.9 nM
efflux ratio [6]: 1.8
IC50 [8]: 2000 nM
Papp A→B [7]: 16.4 ×10⁻⁶ cm/s

CN(C)[C@@H]1CCN(c2ccc3c(C(=O)NCC4CCC(F)(F)CC4)c(Cl)ccc3n2)C1
microsomal CLint [1]: 22 µL/min/mg
microsomal CLint [2]: 50 µL/min/mg
microsomal CLint [3]: 45 µL/min/mg
IC50 [4]: 40 nM
IC50 [5]: 27 nM
efflux ratio [6]: 7.2
Papp A→B [7]: 6.2 ×10⁻⁶ cm/s

O=C(NCC1CCC(F)(F)CC1)c1c(Cl)ccc2ncccc12
IC50 [4]: 220 nM
IC50 [5]: 230 nM

O=C(NC[C@]1(O)CCCC(F)(F)C1)c1c(Cl)ccc2nc(N3CC[C@@H](F)C3)ccc12
microsomal CLint [1]: 31 µL/min/mg
microsomal CLint [2]: 48 µL/min/mg
microsomal CLint [3]: 50 µL/min/mg
IC50 [4]: 36.4 nM
IC50 [5]: 19 nM
IC50 [9]: 4.3 µM
efflux ratio [6]: 8.7
IC50 [8]: 4830 nM
Papp A→B [7]: 6.8 ×10⁻⁶ cm/s

O=C(NCC1CCC(F)(F)CC1)c1c(Cl)ccc2nc(C3CCCC3)ccc12
IC50 [4]: 160 nM
IC50 [5]: 94 nM

O=C(NCC1CCC(F)(F)CC1)c1c(Cl)ccc2nc(N3CC[C@H](F)C3)ccc12
microsomal CLint [1]: 21 µL/min/mg
fraction unbound [10]: 0.041
fraction unbound [11]: 0.03
bioavailability [12]: 31%
microsomal CLint [2]: 49 µL/min/mg
AUC [13]: 84.7 ng·h/mL
fraction unbound [14]: 0.03 to 0.1
AUC [15]: 30.9 ng·h/mL
microsomal CLint [3]: 10 µL/min/mg
fraction unbound [16]: 0.03
Kp uu [17]: 0.37
fraction unbound [18]: 0.03 to 0.1
AUC/dose [19]: 238 ng·h/mL
Activity [20]: 30 µM
Vd [21]: 1.81 L/kg
IC50 [4]: 109 nM
half-life [22]: 28.8 min
IC50 [5]: 8.2 nM
fraction unbound [23]: 0.03
Cmax/dose [24]: 75.1 ng/mL
IC50 [9]: 5.1 µM
fraction unbound [25]: 0.03 to 0.1
Cmax/dose [26]: 545 ng/mL
AUC/dose [27]: 72.9 ng·h/mL
efflux ratio [6]: 0.85
IC50 [8]: 2040 nM
fraction unbound [28]: 0.055
clearance [29]: 69.8 mL/min/kg
Papp A→B [7]: 14.1 to 14.4 ×10⁻⁶ cm/s

O=C(NCC1CCC(F)(F)CC1)c1c(Cl)ccc2nc(N3CCC(CCO)C3)ccc12 (stereo not drawn)
microsomal CLint [1]: 46 µL/min/mg
microsomal CLint [2]: 23 µL/min/mg
microsomal CLint [3]: 32 µL/min/mg
IC50 [4]: 100 nM
IC50 [5]: 47 nM
efflux ratio [6]: 3.8
Papp A→B [7]: 16.5 ×10⁻⁶ cm/s

COCCOc1ccc2c(C(=O)NCC3CCC(F)(F)CC3)c(Cl)ccc2n1
IC50 [4]: 140 nM
IC50 [5]: 25 nM
